Literature values in patent US20050112210A1, “Eye nutritional supplement” (priority 2003, published 2005).

Test system: A2E-epoxidation
Details: singlet oxygen generated in the presence of A2E

| Molecule | effect on A2E-epoxidation |
| --- | --- |
| Cc1cc(C(C)(C)C)c(O)c(C(C)(C)C)c1 [butylated hydroxytoluene] | reduced A2E-epoxidation by quenching singlet oxygen |
| Oc1ccc(C=Cc2cc(O)cc(O)c2)cc1 [resveratrol] | reduced A2E-epoxidation by quenching singlet oxygen |
| vitamin E | reduced A2E-epoxidation by quenching singlet oxygen |
